pIC50: −log10 of the molar value. Values belong to the compound of their own block, whether it stands above or below them. The source made the active and inactive calls. The calls are words filed in the database; no cut-off is given here.
Experiments:
[1] = biological target: T1, Polycomb complex protein BMI-1 (Homo sapiens) (UniProt P35226); assay: Inhibition of BMI1 in human Glioblastoma cell 3D spheres at 7 to 10 nM assessed as reduction in BMI1 protein levels measured by Western blotting method; format: cell-based; details: Glioblastoma cell line, dose 7-10 nM
T1 sequence (whole entry): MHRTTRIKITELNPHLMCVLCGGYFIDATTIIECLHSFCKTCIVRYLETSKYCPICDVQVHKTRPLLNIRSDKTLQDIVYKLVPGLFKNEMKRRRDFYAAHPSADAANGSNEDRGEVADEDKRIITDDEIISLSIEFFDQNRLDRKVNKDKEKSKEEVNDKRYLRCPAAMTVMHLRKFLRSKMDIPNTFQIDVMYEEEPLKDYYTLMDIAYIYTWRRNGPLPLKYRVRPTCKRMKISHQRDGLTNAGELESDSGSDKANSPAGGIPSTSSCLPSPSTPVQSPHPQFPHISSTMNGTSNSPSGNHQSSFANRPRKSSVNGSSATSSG

[2] = biological target: T1, Polycomb complex protein BMI-1 (Homo sapiens); assay: Inhibition of BMI1 in human Glioblastoma cell 3D spheres at 7 to 10 nM assessed as reduction in phospho-RB levels measured by Western blotting method; format: cell-based; details: Glioblastoma cell line, dose 7-10 nM
[3] = biological target: T1, Polycomb complex protein BMI-1 (Homo sapiens); assay: Inhibition of BMI1 in human Glioblastoma cell 3D spheres at 7 to 10 nM assessed as reduction in STAT1 levels measured by Western blotting method; format: cell-based; details: Glioblastoma cell line, dose 7-10 nM
[4] = biological target: T1, Polycomb complex protein BMI-1 (Homo sapiens); assay: Inhibition of BMI1 in human Glioblastoma cell 3D spheres at 7 to 10 nM assessed as reduction in BMI1 protein levels measured up to 120 hrs by Western blotting method; format: cell-based; details: Glioblastoma cell line, dose 7-10 nM, time hrs <=120
[5] = biological target: T1, Polycomb complex protein BMI-1 (Homo sapiens); assay: Inhibition of BMI1 in human Glioblastoma cell 3D spheres at 7 to 10 nM assessed as reduction in PD-L1 protein levels measured up to 120 hrs by Western blotting method; format: cell-based; details: Glioblastoma cell line, dose 7-10 nM, time hrs <=120
[6] = biological target: T1, Polycomb complex protein BMI-1 (Homo sapiens); assay: Inhibition of BMI1 in human Glioblastoma cell 3D spheres at 7 to 10 nM assessed as reduction in phospho-RB levels measured up to 120 hrs by Western blotting method; format: cell-based; details: Glioblastoma cell line, dose 7-10 nM, time hrs <=120
[7] = Antiproliferative activity against human Glioblastoma cell after 72 hrs by MTT assay; format: functional, cell-based; details: Glioblastoma cell line
[8] = Plasma concentration in male C57BL/6 mouse at 2 mg/kg, iv administered as single dose measured at 0.08 hrs measured by LC/MS-MS analysis; format: ADME, organism-based
[9] = Plasma concentration in male C57BL/6 mouse at 2 mg/kg, iv administered as single dose measured at 0.35 hrs measured by LC/MS-MS analysis; format: ADME, organism-based
[10] = Plasma concentration in male C57BL/6 mouse at 2 mg/kg, iv administered as single dose measured at 1 hr measured by LC/MS-MS analysis; format: ADME, organism-based
[11] = Plasma concentration in male C57BL/6 mouse at 10 mg/kg, ip administered as single dose measured at 0.08 hrs measured by LC/MS-MS analysis; format: ADME, organism-based
[12] = Plasma concentration in male C57BL/6 mouse at 10 mg/kg, ip administered as single dose measured at 0.35 hrs measured by LC/MS-MS analysis; format: ADME, organism-based
[13] = Plasma concentration in male C57BL/6 mouse at 10 mg/kg, ip administered as single dose measured at 1 hr measured by LC/MS-MS analysis; format: ADME, organism-based
[14] = Plasma concentration in male C57BL/6 mouse at 10 mg/kg, ip administered as single dose measured at 3 hrs measured by LC/MS-MS analysis; format: ADME, organism-based
[15] = Plasma concentration in male C57BL/6 mouse at 10 mg/kg, ip administered as single dose measured at 6 hrs measured by LC/MS-MS analysis; format: ADME, organism-based
[16] = Plasma concentration in male C57BL/6 mouse at 10 mg/kg, po administered as single dose measured at 0.08 hrs measured by LC/MS-MS analysis; format: ADME, organism-based
[17] = Plasma concentration in male C57BL/6 mouse at 10 mg/kg, po administered as single dose measured at 0.35 hrs measured by LC/MS-MS analysis; format: ADME, organism-based
[18] = Plasma concentration in male C57BL/6 mouse at 10 mg/kg, po administered as single dose measured at 1 hr measured by LC/MS-MS analysis; format: ADME, organism-based
[19] = Plasma concentration in male C57BL/6 mouse at 10 mg/kg, po administered as single dose measured at 3 hrs measured by LC/MS-MS analysis; format: ADME, organism-based
[20] = Plasma concentration in male C57BL/6 mouse at 10 mg/kg, po administered as single dose measured at 6 hrs measured by LC/MS-MS analysis; format: ADME, organism-based
[21] = Brain concentration in male C57BL/6 mouse at 2 mg/kg, iv administered as single dose measured at 0.08 hrs measured by LC/MS-MS analysis; format: ADME, organism-based; details: read-out: Drug uptake
[22] = Brain concentration in male C57BL/6 mouse at 2 mg/kg, iv administered as single dose measured at 0.35 hrs measured by LC/MS-MS analysis; format: ADME, organism-based; details: read-out: Drug uptake
[23] = Brain concentration in male C57BL/6 mouse at 2 mg/kg, iv administered as single dose measured at 1 hr measured by LC/MS-MS analysis; format: ADME, organism-based; details: read-out: Drug uptake
[24] = Brain concentration in male C57BL/6 mouse at 10 mg/kg, ip administered as single dose measured at 0.08 hrs measured by LC/MS-MS analysis; format: ADME, organism-based; details: read-out: Drug uptake
[25] = Brain concentration in male C57BL/6 mouse at 10 mg/kg, ip administered as single dose measured at 0.35 hrs measured by LC/MS-MS analysis; format: ADME, organism-based; details: read-out: Drug uptake
[26] = Brain concentration in male C57BL/6 mouse at 10 mg/kg, ip administered as single dose measured at 1 hr measured by LC/MS-MS analysis; format: ADME, organism-based; details: read-out: Drug uptake
[27] = Brain concentration in male C57BL/6 mouse at 10 mg/kg, ip administered as single dose measured at 3 hrs measured by LC/MS-MS analysis; format: ADME, organism-based; details: read-out: Drug uptake
[28] = Brain concentration in male C57BL/6 mouse at 10 mg/kg, ip administered as single dose measured at 6 hrs measured by LC/MS-MS analysis; format: ADME, organism-based; details: read-out: Drug uptake
[29] = Brain concentration in male C57BL/6 mouse at 10 mg/kg, po administered as single dose measured at 0.08 hrs measured by LC/MS-MS analysis; format: ADME, organism-based; details: read-out: Drug uptake
[30] = Brain concentration in male C57BL/6 mouse at 10 mg/kg, po administered as single dose measured at 0.35 hrs measured by LC/MS-MS analysis; format: ADME, organism-based; details: read-out: Drug uptake
[31] = Brain concentration in male C57BL/6 mouse at 10 mg/kg, po administered as single dose measured at 1 hr measured by LC/MS-MS analysis; format: ADME, organism-based; details: read-out: Drug uptake
[32] = Brain concentration in male C57BL/6 mouse at 10 mg/kg, po administered as single dose measured at 3 hrs measured by LC/MS-MS analysis; format: ADME, organism-based; details: read-out: Drug uptake
[33] = Brain concentration in male C57BL/6 mouse at 10 mg/kg, po administered as single dose measured at 6 hrs measured by LC/MS-MS analysis; format: ADME, organism-based; details: read-out: Drug uptake
[34] = Cmax in male C57BL/6 mouse plasma at 2 mg/kg, iv measured by LC/MS-MS analysis; format: ADME, organism-based; set-up: route intravenous, dose 2 mg/kg
[35] = Oral bioavailability in male C57BL/6 mouse plasma at 10 mg/kg measured by LC/MS-MS analysis; format: ADME, organism-based
[36] = Cmax in male C57BL/6 mouse brain at 2 mg/kg, iv measured by LC/MS-MS analysis; format: ADME, organism-based; set-up: route intravenous, dose 2 mg/kg
[37] = AUClast in male C57BL/6 mouse brain at 2 mg/kg, iv measured by LC/MS-MS analysis; format: ADME, organism-based; details: in vivo
[38] = AUClast in male C57BL/6 mouse brain at 10 mg/kg, ip measured by LC/MS-MS analysis; format: ADME, organism-based; details: in vivo
[39] = AUClast in male C57BL/6 mouse brain at 10 mg/kg, po measured by LC/MS-MS analysis; format: ADME, organism-based; details: in vivo
[40] = AUC (infinity) in male C57BL/6 mouse brain at 10 mg/kg, po measured by LC/MS-MS analysis; format: ADME, organism-based; set-up: time infinity, route oral, dose 10 mg/kg; details: in vivo

- inhibition [1]: Active
- inhibition [2]: Active
- inhibition [3]: Active
- inhibition [4]: Active
- inhibition [5]: Active
- inhibition [6]: Active
SMILES: COc1c(F)cc(Nc2nc(-c3c(C)nc4ccccn34)cs2)cc1F.Cl

- inhibition ([1]; tested as the 2H-labelled form): Active
- inhibition ([2]; tested as the 2H-labelled form): Active
- inhibition ([3]; tested as the 2H-labelled form): Active
SMILES: Cc1nc2ccccn2c1-c1csc(Nc2ccc3c(c2)OCO3)n1

- inhibition ([1]; tested as the 2H-labelled form): Active
- inhibition ([2]; tested as the 2H-labelled form): Active
- inhibition ([3]; tested as the 2H-labelled form): Active
SMILES: COc1ccc(Nc2nc(-c3c(C)nc4ccccn34)cs2)cc1
- pIC50 [7]: 8.00

SMILES: Cl.[2H]C1([2H])Oc2ccc(Nc3nc(-c4c(C)nc5ccccn45)cs3)cc2O1
- concentration at 0.08 h [8]: 256 ng/mL
- concentration at 0.35 h [9]: 44.8 ng/mL
- concentration at 1 h [10]: 9.57 ng/mL
- concentration at 0.08 h [11]: 469 ng/mL
- concentration at 0.35 h [12]: 458 ng/mL
- concentration at 1 h [13]: 232 ng/mL
- concentration at 3 h [14]: 74.9 ng/mL
- concentration at 6 h [15]: 43.7 ng/mL
- concentration at 0.08 h [16]: 207 ng/mL
- concentration at 0.35 h [17]: 163 ng/mL
- concentration at 1 h [18]: 109 ng/mL
- concentration at 3 h [19]: 63.5 ng/mL
- concentration at 6 h [20]: 45.5 ng/mL
- concentration at 0.08 h [21]: 44.9 ng/g
- concentration at 0.35 h [22]: 180 ng/g
- concentration at 1 h [23]: 13.8 ng/g
- concentration at 0.08 h [24]: 288 ng/g
- concentration at 0.35 h [25]: 236 ng/g
- concentration at 1 h [26]: 90.3 ng/g
- concentration at 3 h [27]: 82 ng/g
- concentration at 6 h [28]: 26 ng/g
- concentration at 0.08 h [29]: 67.3 ng/g
- concentration at 0.35 h [30]: 53 ng/g
- concentration at 1 h [31]: 51.9 ng/g
- concentration at 3 h [32]: 20.5 ng/g
- concentration at 6 h [33]: 10.5 ng/g
- Cmax [34]: 430 ng/mL
- bioavailability [35]: 100%
- Cmax [36]: 44.9 ng/g
- AUClast [37]: 97.08 ng·h/g
- AUClast [38]: 360.87 ng·h/g
- AUClast [39]: 171.84 ng·h/g
- AUC [40]: 204.06 ng·h/g
